Test results from patent US10703764B2, “Benzopiperazine compositions as BET bromodomain inhibitors” (FORMA Therapeutics, Inc., priority 2013, dated 2020).

What was measured:
[1] = target: T1, BRD4 BD1 (Homo sapiens, UniProt O60885); test: AlphaScreen binding assay, BRD4 Bromodomain 1
T1 construct: made in house
How it was run: (§1)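 An AlphaScreen competition format was used with His-BRD4 BD1 or BD2 and biotin-H4 K5/8/12/16-acetyl peptide, each at matched final levels of 50 nM (BD1) or 100 nM (BD2). Incubation in HEPES/NaCl buffer with 0.1% BSA and 0.01% Triton X-100 ran ≥1 h before IC50 determination.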

[2] = target: T2, BRD4 BD2 (Homo sapiens, UniProt O60885); test: AlphaScreen binding assay, BRD4 Bromodomain 2
T2 construct: made in house
How it was run: as §1

SMILES	IC50 [1] [µM]	IC50 [2] [µM]
CC(=O)N1c2ccccc2N(S(=O)(=O)c2ccccc2F)C[C@@H]1C [Example I-931]	> 10	> 0.5
CC(=O)N1c2ccccc2N(S(=O)(=O)c2ccccc2)C[C@@H]1C [Example I-932]	> 10	> 0.5
CC(=O)N1c2ccccc2N(S(=O)(=O)c2ccn(C)n2)C[C@@H]1C [Example I-933]	> 10	> 0.5
CC(=O)N1c2ccccc2N(S(=O)(=O)c2cccnc2)C[C@@H]1C [Example I-934]	> 10	> 0.5
COc1ccc(S(=O)(=O)N2C[C@H](C)N(C(C)=O)c3ccccc32)cc1 [Example I-936]	> 10	> 0.5
CC(=O)N1c2ccccc2N(S(=O)(=O)c2ccc(C#N)cc2)C[C@@H]1C [Example I-938]	> 10	> 0.5
CC(=O)N1c2ccccc2N(S(=O)(=O)c2ccc(C)cc2)C[C@@H]1C [Example I-940]	> 10	> 0.5
CC(=O)N1c2ccccc2N(S(=O)(=O)c2ccccc2C)C[C@@H]1C [Example I-941]	> 10	> 0.5
CC(=O)N1c2ccccc2N(S(=O)(=O)c2ccccc2C#N)C[C@@H]1C [Example I-943]	> 10	> 0.5
CC(=O)N1c2ccccc2N(S(=O)(=O)c2cccc(C#N)c2)C[C@@H]1C [Example I-944]	> 10	> 0.5
COc1cccc(S(=O)(=O)N2C[C@H](C)N(C(C)=O)c3ccccc32)c1 [Example I-945]	> 10	> 0.5
CC(=O)N1c2ccccc2N(S(=O)(=O)c2cccc(Cl)c2)C[C@@H]1C [Example I-946]	> 10	> 0.5
CC(=O)N1c2ccccc2N(S(=O)(=O)c2cccc(C(F)(F)F)c2)C[C@@H]1C [Example I-947]	> 10	> 0.5
CC(=O)N1c2ccccc2N(S(=O)(=O)c2cccc(C)c2)C[C@@H]1C [Example I-948]	> 10	> 0.5
COc1ccc(S(=O)(=O)N2C[C@H](C)N(C(C)=O)c3ccccc32)c(OC)c1 [Example I-950]	> 10	> 0.5
CC(=O)N1c2ccccc2N(S(=O)(=O)Cc2ccccc2Cl)C[C@@H]1C [Example I-953]	> 10	> 0.5
CC(=O)N1c2ccccc2N(S(=O)(=O)Cc2ccccc2)C[C@@H]1C [Example I-954]	> 10	> 0.5
CC(=O)N1c2ccccc2N(S(=O)(=O)Cc2cccc(Cl)c2)C[C@@H]1C [Example I-955]	> 10	> 0.5
CC(=O)c1ccc(S(=O)(=O)N2C[C@H](C)N(C(C)=O)c3ccccc32)cc1 [Example I-957]	> 10	> 0.5
CC(=O)N1c2ccccc2N(S(=O)(=O)Cc2cccc(C#N)c2)C[C@@H]1C [Example I-958]	> 10	> 0.5
COc1cc(Cl)ccc1S(=O)(=O)N1C[C@H](C)N(C(C)=O)c2ccccc21 [Example I-959]	> 10	> 0.5
COc1ccc(S(=O)(=O)N2C[C@H](C)N(C(C)=O)c3ccccc32)c(C)c1 [Example I-960]	> 10	> 0.5

SMILES	IC50 [1] [µM]	IC50 [2] [µM]
CC(=O)N1c2ccccc2N(S(=O)(=O)Cc2ccc(C#N)cc2)C[C@@H]1C [Example I-963]	> 10	> 0.5
CCNC(=O)N1C[C@H](C)N(C(C)=O)c2ccc(-c3ccc(S(C)(=O)=O)cc3)cc21 [Example I-965]	> 10	> 0.5
COc1cccc(NC(=O)N2C[C@H](C)N(C(C)=O)c3ccc(-c4ccc(S(C)(=O)=O)cc4)cc32)c1 [Example I-967]	> 10	0.05 to 0.5
CC(=O)N1c2ccc(-c3ccc(S(C)(=O)=O)cc3)cc2N(C(=O)Nc2cccc(Cl)c2)C[C@@H]1C [Example I-969]	> 10	> 0.5
COc1ccccc1NC(=O)N1C[C@H](C)N(C(C)=O)c2ccc(-c3ccc(S(C)(=O)=O)cc3)cc21 [Example I-970]	1 to 10	0.05 to 0.5
COc1ccccc1CNC(=O)N1C[C@H](C)N(C(C)=O)c2ccc(-c3ccc(S(C)(=O)=O)cc3)cc21 [Example I-972]	> 10	> 0.5
CC(=O)N1c2ccc(-c3ccc(S(C)(=O)=O)cc3)cc2N(C(=O)Nc2ccccc2Cl)C[C@@H]1C [Example I-973]	1 to 10	0.05 to 0.5
CC(=O)N1c2ccc(-c3ccc(S(C)(=O)=O)cc3)cc2N(C(=O)Nc2ccc(Cl)cc2)C[C@@H]1C [Example I-975]	> 10	> 0.5
CC(=O)N1c2ccc(-c3ccc(S(C)(=O)=O)cc3)cc2N(C(=O)NCc2ccccc2Cl)C[C@@H]1C [Example I-977]	> 10	> 0.5
CC(=O)N1c2ccc(-c3ccc(S(C)(=O)=O)cc3)cc2N(C(=O)NCC(C)C)C[C@@H]1C [Example I-978]	> 10	> 0.5
CC(=O)N1c2ccc(-c3ccc(S(C)(=O)=O)cc3)cc2N(C(=O)Nc2ccsc2)C[C@@H]1C [Example I-979]	1 to 10	0.05 to 0.5
CC(=O)N1c2ccc(-c3ccc(S(C)(=O)=O)cc3)cc2N(C(=O)NCc2ccco2)C[C@@H]1C [Example I-980]	> 10	> 0.5
CC(=O)N1c2ccc(-c3ccc(S(C)(=O)=O)cc3)cc2N(C(=O)c2cc(C)[nH]n2)CC1C (stereo not drawn) [Example I-981]	1 to 10	0.05 to 0.5
CC(=O)N1c2ccc(-c3ccc(S(C)(=O)=O)cc3)cc2N(C(=O)c2ncc[nH]2)CC1C (stereo not drawn) [Example I-982]	1 to 10	> 0.5
CC(=O)N1c2ccc(-c3ccc(S(C)(=O)=O)cc3)cc2N(C(=O)c2ccc(S(=O)(=O)N(C)C)o2)C[C@@H]1C [Example I-983]	> 10	> 0.5
CC(=O)N1c2ccc(-c3ccc(S(C)(=O)=O)cc3)cc2N(C(=O)c2ccc(CN(C)C)o2)C[C@@H]1C [Example I-984]	> 10	0.05 to 0.5
CC(=O)N1c2ccc(-c3ccc(S(C)(=O)=O)cc3)cc2N(C(=O)c2cccc(N)c2)C[C@@H]1C [Example I-985]	> 10	0.05 to 0.5
CC(=O)N1c2ccc(-c3ccc(S(C)(=O)=O)cc3)cc2N(C(=O)c2ccc(N)cc2)C[C@@H]1C [Example I-986]	> 10	> 0.5
CC(=O)N1c2ccc(NCc3ccccc3)cc2N(C(=O)c2ccco2)C[C@@H]1C [Example I-989]	1 to 10	0.05 to 0.5
CC(=O)N1c2ccc(Nc3ccccc3)cc2N(C(=O)c2ccco2)C[C@@H]1C [Example I-991]	1 to 10	0.05 to 0.5
CC(=O)N1c2ccc(N(C)c3ccccc3)cc2N(C(=O)c2ccco2)C[C@@H]1C [Example I-992]	1 to 10	> 0.5

Other lines, results leading:

IC50 [1] [µM]	IC50 [2] [µM]	SMILES
> 10	> 0.5	CC(=O)N1c2ccccc2N(S(=O)(=O)c2ccc(Cl)cc2)C[C@@H]1C [Example I-935]
> 10	> 0.5	CC(=O)N1c2ccccc2N(S(=O)(=O)c2ccc(C(F)(F)F)cc2)C[C@@H]1C [Example I-937]
> 10	> 0.5	CC(=O)N1c2ccccc2N(S(=O)(=O)c2ccc(OC(F)(F)F)cc2)C[C@@H]1C [Example I-939]
> 10	> 0.5	CC(=O)N1c2ccccc2N(S(=O)(=O)c2ccccc2Cl)C[C@@H]1C [Example I-942]
> 10	> 0.5	CC(=O)N1c2ccccc2N(S(=O)(=O)c2ccc(C)cc2C)C[C@@H]1C [Example I-949]
> 10	> 0.5	CC(=O)N1c2ccccc2N(S(=O)(=O)c2ccc(C(F)(F)F)nc2)C[C@@H]1C [Example I-951]
> 10	> 0.5	CC(=O)N1c2ccccc2N(S(=O)(=O)C2CC2)C[C@@H]1C [Example I-952]
> 10	> 0.5	CC(=O)N1c2ccccc2N(S(=O)(=O)c2cn(C)c(C)n2)C[C@@H]1C [Example I-956]
> 10	> 0.5	CC(=O)N1c2ccccc2N(S(=O)(=O)c2cn(C)cn2)C[C@@H]1C [Example I-961]
> 10	> 0.5	CC(=O)N1c2ccccc2N(S(=O)(=O)Cc2ccc(Cl)cc2)C[C@@H]1C [Example I-962]
1 to 10	0.05 to 0.5	CC(=O)N1c2ccc(-c3ccc(S(C)(=O)=O)cc3)cc2N(C(=O)Nc2ccccc2)C[C@@H]1C [Example I-964]
> 10	> 0.5	CC(=O)N1c2ccc(-c3ccc(S(C)(=O)=O)cc3)cc2N(C(=O)Nc2ccccc2C)C[C@@H]1C [Example I-966]
1 to 10	0.05 to 0.5	CC(=O)N1c2ccc(-c3ccc(S(C)(=O)=O)cc3)cc2N(C(=O)NC2CCCC2)C[C@@H]1C [Example I-968]
> 10	0.05 to 0.5	CC(=O)N1c2ccc(-c3ccc(S(C)(=O)=O)cc3)cc2N(C(=O)Nc2cccc(C)c2)C[C@@H]1C [Example I-971]
1 to 10	0.05 to 0.5	CC(=O)N1c2ccc(-c3ccc(S(C)(=O)=O)cc3)cc2N(C(=O)Nc2ccc(C)cc2)C[C@@H]1C [Example I-974]
> 10	> 0.5	CC(=O)N1c2ccc(-c3ccc(S(C)(=O)=O)cc3)cc2N(C(=O)NCc2ccc(C)cc2)C[C@@H]1C [Example I-976]
> 10	> 0.5	C[C@H]1CN(C(=O)c2ccco2)c2cc(-c3ccc(S(C)(=O)=O)cc3)ccc2N1C(N)=O [Example I-987]
1 to 10	0.05 to 0.5	CC(=O)N1c2ccc(N(C)Cc3ccccc3)cc2N(C(=O)c2ccco2)C[C@@H]1C [Example I-990]
1 to 10	0.05 to 0.5	CC(=O)N1c2ccc(N3CCCC3)cc2N(C(=O)c2ccco2)C[C@@H]1C [Example I-993]
1 to 10	> 0.5	C[C@H]1CN(C(=O)OC2COC2)c2cc(-c3cnn(C4CC4)c3)ccc2N1C(=O)C1CC1 [Example I-998]
